The values below come from US7511145B2 (Genelabs Technologies, Inc., priority 2003, dated 2009).

This experiment has as its target T1, HCV-NS5b (Hepatitis C virus genotype 1b, UniProt Q9WMX2).
T1 construct: (His)6 (C); made in house; host or cells: XL-1 cells (E. coli), IPTG-inducible plasmid, nickel-NTA purification
As to the kind of experiment: HCV-NS5b enzyme assay (incorporation of radiolabeled UTP). It is filed as biochemical. The conditions noted are these: for inhibition at 33 µM: enzyme inhibition at compound concentration of 33 uM; for inhibition at 100 µM: read-out: % inh@100, enzyme inhibition at compound concentration of 100 uM. The source says:
The coding sequence of NS5b protein was cloned by PCR from pFKI389luc/NS3-3′/ET as described by Lohmann, V., et al. (1999) Science 285, 110-113 using the following primers: […]
The cloned fragment was missing the C terminus 21 amino acid residues. The cloned fragment was inserted into an IPTG-inducible expression plasmid that provided an epitope tag (His)6 at the carboxy terminus of the protein.
The recombinant enzyme was expressed in XL-1 cells and after induction of expression, the protein was purified using affinity chromatography on a nickel-NTA column. Storage condition was 10 mM Tris-HCl pH 7.5, 50 mM NaCl, 0.1 mM EDTA, 1 mM DTT, 20% glycerol at −20° C.
The polymerase activity was assayed by measuring incorporation of radiolabeled UTP into a RNA product using a biotinylated, heteropolymeric template, which included a portion of the HCV genome. Typically, the assay mixture (50 μL) contained 10 mM Tris-HCl (pH 7.5), 5 mM MgCl2, 0.2 mM EDTA, 10 mM KCl, 1 unit/μL RNAsin, 1 mM DTT, 10 μM each of NTP, including [^3H]-UTP, and 10 ng/μL heteropolymeric template. Test compounds were initially dissolved in 100% DMSO and further diluted in aqueous buffer containing 5% DMSO. Typically, compounds were tested at concentrations between 1 nM and 100 μM. Reactions were started with addition of enzyme and allowed to continue at 37° C. for 2 hours. Reactions were quenched with 8 μL of 100 mM EDTA and reaction mixtures (30 μL) were transferred to streptavidin-coated scintillation proximity microtiter plates (FlashPlates) and incubated at 4° C. overnight. Incorporation of radioactivity was determined by scintillation counting.
Shown in Table IX below are the values for enzyme inhibition measured at compound concentrations of 100 and 33 uM, (% inh@[…] and % inh@33, respectively). The percent inhibition values are calculated from the differential incorporation of radioactivity compared to a control reaction without compound: % inhibition=100−[(CountsINH−CountsBKG)/CountsCTRL−CountsBKG)×100 where CountsINH is the signal of the testwell with inhibitor, CountsBKG is the background signal and CountsCTRL is the signal of a testwell without inhibitor.

Molecules are shown by their SMILES.

Take `O=C(N[C@@H](Cc1ccccc1)C(=O)O)c1ccc2c(c1)nc(-c1ccc3nc(-c4ccccc4)cnc3c1)n2C1CCCCC1` [Compound 246, 2-{[1-Cyclohexyl-2-(2-phenyl-quinoxalin-6-yl)-1H-benzoimidazole-5-carbonyl]-amino}-3-phenyl-propionic acid]: the inhibition at 33 µM came out at 95.9% and the inhibition at 100 µM worked out at 96.4%.
Consider `O=C(N[C@@H](Cc1c[nH]cn1)C(=O)O)c1ccc2c(c1)nc(-c1ccc3nc(-c4ccccc4)cnc3c1)n2C1CCCCC1` [Compound 247, 2-{[1-Cyclohexyl-2-(2-phenyl-quinoxalin-6-yl)-1H-benzoimidazole-5-carbonyl]-amino}-3-(1H-imidazol-4-yl)-propionic acid], for which the inhibition at 33 µM came out at 66.8% and the inhibition at 100 µM came to 94.2%.
For `O=C(O)[C@@H]1C[C@@H](O)CN1C(=O)c1ccc2c(c1)nc(-c1ccc3nc(-c4ccccc4)cnc3c1)n2C1CCCCC1` [Compound 248, 1-[1-Cyclohexyl-2-(2-phenyl-quinoxalin-6-yl)-1H-benzoimidazole-5-carbonyl]-4-hydroxy-pyrrolidine-2-carboxylic acid] the same measures were 47.4% and 86.8%.
Turning to `CC[C@H](C)[C@H](NC(=O)c1ccc2c(c1)nc(-c1ccc3nc(-c4ccccc4)cnc3c1)n2C1CCCCC1)C(=O)O` [Compound 249, 2-{[1-Cyclohexyl-2-(2-phenyl-quinoxalin-6-yl)-1H-benzoimidazole-5-carbonyl]-amino}-3-methyl-pentanoic acid], the inhibition at 33 µM is 94.5% and the inhibition at 100 µM stood at 97.2%.
`c1ccc(-c2cnc3cc(-c4nc5cc(-c6nn[nH]n6)ccc5n4C4CCCCC4)ccc3n2)cc1` [Compound 258, 6-[1-cyclohexyl-5-(1H-tetrazol-5-yl)-1H-benzimidazol-2-yl]-2-phenylquinoxaline]: the inhibition at 33 µM stood at 97% and the inhibition at 100 µM is 98%.
Consider `O=C(c1ccc(-c2ccc(Cl)cc2)c(-c2ccc3cc(-c4nc5cc(-c6nnn[nH]6)ccc5n4C4CCCCC4)ccc3n2)c1)N1CCCC1` [Compound 259, (4′-chloro-2-{6-[1-cyclohexyl-5-(1H-tetrazol-5-yl)-1H-benzoimidazol-2-yl]-quinolin-2-yl}-biphenyl-4-yl)-pyrrolidin-1-yl-methanone], for which the inhibition at 33 µM turned out to be 99.7% and the inhibition at 100 µM was 99.4%.
On to `C[C@H](NC(=O)c1ccc2c(c1)nc(-c1ccc3nc(-c4ccccc4)cnc3c1)n2C1CCCCC1)C(=O)O` [Compound 310, 2-[(2-(2-phenyl-quinoxalin-6-yl)-1-cyclohexyl-1H-benzoimidazole-5-carbonyl)-amino]-propionic acid], for which the inhibition at 33 µM is 83.2% and the inhibition at 100 µM is 98.3%.
In the same order, the values of `O=C(O)CNC(=O)c1ccc2c(c1)nc(-c1ccc3nc(-c4ccccc4)cnc3c1)n2C1CCCCC1` [Compound 311, {[1-Cyclohexyl-2-(2-phenyl-quinoxalin-6-yl)-1H-benzoimidazole-5-carbonyl]-amino}-acetic acid] are 83% and 93.3%.
In the same order, the values of `O=C(O)c1ccc2c(c1)nc(-c1ccc3cc(-c4ccccc4)cnc3c1)n2C1CCCCC1` [Compound 351, 1-cyclohexyl-2-(3-phenyl-quinolin-7-yl)-1H-benzoimidazole-5-carboxylic acid] are 94.9% and 98.1%.
In the same order, the values of `O=C(O)c1ccc2c(c1)nc(-c1ccc3nc(-c4ccccc4Br)ccc3c1)n2C1CCCCC1` [Compound 352, 2-[2-(2-bromo-phenyl)-quinolin-6-yl]-1-cyclohexyl-1H-benzoimidazole-5-carboxylic acid] are 94.2% and 98.8%.
`O=C(O)c1ccc2[nH]c(-c3ccc4nc(-c5ccccc5-c5ccc(Cl)cc5)ccc4c3)nc2c1` [Compound 353, 2-[2-(4′-Chloro-biphen-2-yl)-quinolin-6-yl]-1H-benzoimidazole-5-carboxylic acid]: the inhibition at 33 µM was determined as 67.3% and the inhibition at 100 µM worked out at 67.5%.
